From US10500207B2, “Compounds for the treatment of diseases associated with amyloid or amyloid-like proteins” (AC Immune SA, priority 2010, dated 2019)

These compounds were tested against Aβ1-42 peptide (Homo sapiens, UniProt P05067) (assay: Thioflavin T spectrofluorescence assay (ThT-assay): inhibition of Aβ1-42 aggregation (% inhibition at 330 μM; IC50 from dilution series)). Conditions: 24 h, read-out: Inhibition at 330 μM [%], ThT assay; 330 μM small molecule, 33 μM Aβ1-42 (10:1), 24 hrs at 37° C.; mean ± standard deviation of two independent experiments.
Aβ1-42 peptide, sequence (P05067 672-713 limits assumed): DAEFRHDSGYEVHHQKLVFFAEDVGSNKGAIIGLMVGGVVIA
Procedure: Aβ1-42 lyophilized powder (Bachem) was reconstituted in hexafluoroisopropanol (HFIP) to 1 mM. The peptide solution was sonicated for 15 min at room temperature, agitated overnight, and aliquots were made into non-siliconized microcentrifuge tubes. The HFIP was then evaporated under a stream of argon. The resulting peptide film was dried under vacuum for 10 min, tightly sealed and stored at −80° C. until used.
A positive control without a small molecule was prepared to measure maximum RFU. A negative control without Aβ1-42 was prepared for each small molecule. […] The solutions were then incubated for 24 hrs at 37° C., and the spectrofluorescence (relative fluorescence units; RFU) were read in six replicates in black 384-well assay plates (Perkin-Elmer) on a Perkin-Elmer FluoroCount spectrofluorometer. The inhibition of aggregation is expressed as mean % inhibition±1 standard deviation (SD) according to the following equation:
Racemic compounds and their enantiomers were tested for their ability to inhibit amyloid peptide aggregation using the ThT assay. To determine the IC50, the following dilutions of the compounds were used in the ThT assay described above:

SMILES	inhibition at 330 µM [%]
N#Cc1c[nH]c2nc(Nc3cnc4c(C5CCNCC5)c[nH]c4c3)ccc12 [Example 34]	79.2 ± 16.2
Cn1c2c(c3ccc(Nc4ccc5c(c4)OCC(=O)N5)nc31)CCCC2 [Example 167]	88.9 ± 2.6
CN1CCC(c2c[nH]c3cc(Nc4ccc5c(C6CCN(C)CC6)c[nH]c5c4)ccc23)CC1 [Example 119]	99.2 ± 0.3
CN1CCN(c2ccc(Nc3ccc4c5c(n(C)c4n3)CCCC5)cc2)CC1 [Example 166]	93.6 ± 2.2
c1ccc(CNc2ccc3cc[nH]c3n2)nc1 [Example 2]	47.4 ± 8.9
c1cc2ccc(Nc3ccc4cc[nH]c4n3)cc2[nH]1 [Example 12]	75.3 ± 14.5
COc1cc(Nc2ccc3c(c2)c2c(n3C)CCS(=O)(=O)C2)ccc1C [Example 178]	35.4 ± 5.9
CNC1CCc2[nH]c3ccc(Nc4ccc5c(C6CCNCC6)cn(C)c5c4)cc3c2C1 (stereo not drawn) [Example 108]	98.9 ± 0.5
c1cc2c(C3CCNCC3)c[nH]c2cc1Nc1ccc2c(C3CCNCC3)c[nH]c2c1 [Example 63]	91.5 ± 2.5
CNC1CCc2c(c3ccc(Nc4cccc(N5CCN(C)CC5)c4)nc3n2C)C1 (stereo not drawn) [Example 80]	83.3 ± 0.1
COC1CCc2[nH]c3cc(Nc4ccc5c(c4)OCCO5)ccc3c2C1 (stereo not drawn) [Example 127]	91.5 ± 2.5
CNC1CCc2c(c3ccc(Nc4cc(F)cc(F)c4)nc3n2C)C1 (stereo not drawn) [Example 29]	85.4 ± 0.4
COc1ccc(Nc2ccc3c(C4CCN(C)CC4)cn(C)c3n2)cc1F [Example 105]	96.7 ± 0.7
Cn1cc(C2CCNCC2)c2cc(Nc3ccc4c5c([nH]c4n3)CCC5)ccc21 [Example 59]	99 ± 0.3
COCCNC1CCc2c(c3ccc(Nc4ccc(F)c(F)c4)nc3n2C)C1 (stereo not drawn) [Example 141]	87.5 ± 1.4
Cn1cnc2ccc(Nc3ccc4c5c(n(C)c4n3)CCCC5)cc21 [Example 172]	68.3 ± 0.8
COC1CCc2c(c3cc(Nc4ccc5c(c4)OCCO5)ccc3n2C)C1 (stereo not drawn) [Example 126]	82.2 ± 2.2
CN1CCC(c2c[nH]c3cc(Nc4ccc5ncn(C)c5c4)ccc23)CC1 [Example 200]	67.4 ± 3.4
CN1CCC(c2cn(C)c3nc(Nc4ccc5c(c4)CN(C)CC5)ccc23)CC1 [Example 152]	80.8 ± 3.6
FC(F)(F)c1ccc(Nc2ccc3[nH]cc(C4CCNCC4)c3c2)cn1 [Example 56]	58.5 ± 2.7
CNC1CCc2[nH]c3cc(Nc4ccc5c(c4)OCCO5)ccc3c2C1 (stereo not drawn) [Example 132]	99.4 ± 0.8
COc1cc(Nc2ccc3c(C4CCNCC4)cn(C)c3c2)ccc1F [Example 112]	91.3 ± 1.3
COCCOC1CCc2c(c3ccc(Nc4ccc(F)c(F)c4)nc3n2C)C1 (stereo not drawn) [Example 136]	88 ± 1.4
CNC1CCc2c(c3cc(Nc4ccc5c(c4)OCCO5)cnc3n2C)C1 (stereo not drawn) [Example 137]	83.3 ± 3.3
CN1CCC(c2c[nH]c3cc(Nc4ccc5c(c4)OCO5)ccc23)CC1 [Example 153]	91.3 ± 4.2
Cn1c2c(c3ccc(Nc4ccc5c(c4)OCCO5)nc31)CC(OCCF)CC2 (stereo not drawn) [Example 130]	91.6 ± 0.2
COc1ccc(Nc2ccc3[nH]cc(C4CCN(C)CC4)c3c2)cc1F [Example 101]	70.2 ± 9.8

SMILES	inhibition at 330 µM [%]
CN1CCC(c2cn(C)c3nc(Nc4ccc(F)c(F)c4)ccc23)CC1 [Example 151]	88.5 ± 2.8
CNC1CCc2c(c3ccc(Nc4ccc(F)c(OC)c4)nc3n2C)C1 (stereo not drawn) [Example 115]	94 ± 0.8
COc1ccc(Nc2ccc3c(C4CCNCC4)cn(C)c3n2)cc1F [Example 103]	93.2 ± 3.7
CNC1CCc2[nH]c3nc(Nc4ccc(C(F)(F)F)nc4)ccc3c2C1 (stereo not drawn) [Example 25]	63.4 ± 9
CNC1CCc2c(c3ccc(Nc4ccc5c(C6CCN(C)CC6)c[nH]c5c4)nc3n2C)C1 (stereo not drawn) [Example 117]	90.7 ± 7.9
CN1CCC(c2c[nH]c3cc(Nc4ccc5c(c4)OCCCO5)ccc23)CC1 [Example 78]	75 ± 1.4
c1cc2c(cc1Nc1ccc3c(C4CCNCC4)c[nH]c3c1)CCC2 [Example 65]	95.9 ± 1.3
CC(=O)Nc1cccc(Nc2ccc3c(C4CCNCC4)c[nH]c3n2)c1 [Example 143]	64.8 ± 3.7
c1cc2cc(Nc3ccc4cc[nH]c4c3)ccc2[nH]1 [Example 16]	93.7 ± 2.1
COc1ccc(Nc2ccc3c(C4CCNCC4)c[nH]c3n2)cc1F [Example 102]	84.1 ± 1.5
Cn1cc(C2CCNCC2)c2ccc(Nc3cccc(N4CCOCC4)c3)cc21 [Example 70]	91 ± 1.2
c1cc2c(C3CCNCC3)c[nH]c2cc1Nc1ccc2c3c([nH]c2n1)CCC3 [Example 46]	99.4
Cn1c2c(c3cc(Nc4ccc(N5CCOCC5)cc4)ccc31)CS(=O)(=O)CC2 [Example 184]	41.3 ± 1.1
Cn1c2c(c3ccc(Nc4ccc5c(c4)OCO5)nc31)CCCC2 [Example 169]	92.4 ± 4
Cn1cnc2ccc(Nc3ccc4c5c(n(C)c4n3)CCC5)cc21 [Example 175]	75.5 ± 7.8
CNC1CCc2c(c3ccc(Nc4cccc(N5CCOCC5)c4)nc3n2C)C1 (stereo not drawn) [Example 82]	96.6 ± 2
CN1CCC(c2c[nH]c3cc(Nc4ccc5c(C6CCN(C)CC6)c[nH]c5n4)ccc23)CC1 [Example 148]	88.7 ± 2.2
c1ccc(Nc2ccc3cc[nH]c3n2)nc1 [Example 9]	70.8 ± 9.2
CNC1CCc2[nH]c3nc(Nc4cc(F)c(F)cc4F)ccc3c2C1 (stereo not drawn) [Example 27]	86.7 ± 0.8
CN1CCC(c2c[nH]c3cc(Nc4cc(F)c(F)c(F)c4)ccc23)CC1 [Example 113]	90.5 ± 0.5
CN1CCC(c2c[nH]c3cc(Nc4ccc(F)c(F)c4)ccc23)CC1 [Example 22]	84.5 ± 6.8
FC(F)(F)c1ccc(Nc2ccc3c(C4CCNCC4)c[nH]c3n2)cn1 [Example 61]	83 ± 2.1
COc1ccc(Nc2ccc3c4c(n(C)c3n2)CCC(OCCF)C4)cc1OC (stereo not drawn) [Example 129]	79.9 ± 0.6
COc1cc(Nc2ccc3c4c(n(C)c3c2)CCC(OC)C4)ccc1F (stereo not drawn) [Example 124]	79.1 ± 3.8
CN1CCc2c(c3cc(Nc4ccc(F)c(F)c4)ccc3n2C)C1 [Example 206]	94.5 ± 0.7
c1cc(N2CCOCC2)ccc1Nc1ccc2c(C3CCNCC3)c[nH]c2c1 [Example 73]	99.2 ± 0.3
Cn1c2c(c3cc(Nc4ccc5c(c4)OCCO5)ccc31)CS(=O)(=O)CC2 [Example 177]	29.6 ± 6.2

SMILES	inhibition at 330 µM [%]
COc1ccc(Nc2ccc3c4c(n(C)c3n2)CCC(OC(C)C)C4)cc1OC (stereo not drawn) [Example 131]	91.4 ± 0.2
c1cc(N2CCOCC2)ccc1Nc1ccc2c(c1)OCO2 [Example 188]	83.3 ± 6
Fc1ccc(Nc2ccc3c(C4CCNCC4)c[nH]c3n2)cc1F [Example 60]	83.1 ± 3.4
CN1CCC(c2cn(C)c3nc(Nc4ccc5c(c4)OCO5)ccc23)CC1 [Example 149]	84.4 ± 4.1
CNC1CCc2c(c3ccc(Nc4ccc5[nH]cc(C6CCNCC6)c5c4)nc3n2C)C1 (stereo not drawn) [Example 92]	99.6 ± 0.6
COCCNC1CCc2c(c3ccc(Nc4ccc(OC)c(OC)c4)nc3n2C)C1 (stereo not drawn) [Example 142]	73.2 ± 6.2
c1cc2cc(Nc3ccc4cc[nH]c4n3)cnc2[nH]1 [Example 11]	86.2 ± 8.6
CNC1CCc2c(c3ccc(Nc4ccc5c(c4)CN(C)CC5)nc3n2C)C1 (stereo not drawn) [Example 158]	87.8 ± 3.6
CNC1CCc2[nH]c3nc(Nc4ccc(F)c(F)c4)ccc3c2C1 (stereo not drawn) [Example 24]	77.4 ± 15.6
Fc1ccc(Nc2ccc3cc[nH]c3n2)cc1 [Example 10]	62.7 ± 4
FC(F)(F)c1ccc(Nc2ccc3c(C4CCNCC4)c[nH]c3c2)cn1 [Example 49]	81.9 ± 0.6
Fc1ccc(Nc2ccc3[nH]cc(C4CCNCC4)c3c2)cc1F [Example 55]	75.8 ± 0.8
Cn1cc(C2CCNCC2)c2ccc(Nc3ccc4c(c3)OCO4)nc21 [Example 66]	85.1 ± 0.8
c1ccc2c(c1)CCN(c1ccc3c(C4CCNCC4)c[nH]c3c1)C2 [Example 72]	97.9 ± 0.5
Cn1cnc2ccc(Nc3ccc4c(c3)c3c(n4C)CCS(=O)(=O)C3)cc21 [Example 181]	6.6 ± 4.3
N#Cc1c[nH]c2nc(Nc3ccc(F)cc3)ccc12 [Example 15]	58.6 ± 9.5
Cn1c2c(c3ccc(Nc4ccc5c(c4)OCCO5)nc31)CCC2 [Example 173]	90.1 ± 2.3
CN1CCC(c2c[nH]c3cc(Nc4ccc5c(c4)OCCN5C)ccc23)CC1 [Example 194]	106.1 ± 0.3
CNC1CCc2c(c3cc(Nc4ccc(F)c(F)c4)cnc3n2C)C1 (stereo not drawn) [Example 134]	67.3 ± 10.4
CN1CCc2ccc(Nc3ccc4c5c(n(C)c4n3)CCCC5)cc2C1 [Example 201]	93.3 ± 0.1
CN1CCC(c2c[nH]c3ccc(Nc4ccc(F)c(F)c4)cc23)CC1 [Example 21]	74 ± 2.7
CNC1CCc2[nH]c3ccc(Nc4ccc(OC)c(F)c4)cc3c2C1 (stereo not drawn) [Example 107]	86.8 ± 1.9
c1cc(Nc2ccc3c(C4CCNCC4)c[nH]c3c2)cc(N2CCOCC2)c1 [Example 62]	99.7 ± 0.3
COC1CCc2c(c3ccc(Nc4ccc5c(c4)OCCO5)nc3n2C)C1 (stereo not drawn) [Example 198]	92.1 ± 0.3
CNC1CCc2c(c3ccc(Nc4ccc5c(c4)OCCCO5)nc3n2C)C1 (stereo not drawn) [Example 84]	91.7 ± 0.2
CNC1CCc2c(c3ccc(Nc4ccc(F)c(F)c4)nc3n2C)C1 (racemic) [Example 26, N^2-(3,4-difluorophenyl)-N^8,9-dimethyl-6,7,8,9-tetrahydro-5H-pyrido[2,3-b]indole-2,6-diamine hydrogenchloride]	93.4 ± 3.9

Same assay, conditions: IC50 μM 1st assay, ThT assay, dilution series 330 μM to 0.08 μM; 1st assay

SMILES	IC50 [µM]
CNC1CCc2c(c3ccc(Nc4ccc(N5CCOCC5)cc4)nc3n2C)C1 (single isomer, unassigned) [Example 216a]	99.3
CNC1CCc2c(c3ccc(Nc4ccc(F)c(F)c4)nc3n2C)C1 (racemic) [Example 26, N^2-(3,4-difluorophenyl)-N^8,9-dimethyl-6,7,8,9-tetrahydro-5H-pyrido[2,3-b]indole-2,6-diamine hydrogenchloride]	12.2

Same assay, conditions: IC50 μM 2nd assay, ThT assay, dilution series 330 μM to 0.08 μM; 2nd assay

SMILES	IC50 [µM]
CNC1CCc2c(c3ccc(Nc4ccc(N5CCOCC5)cc4)nc3n2C)C1 (single isomer, unassigned) [Example 216a]	54.9
CNC1CCc2c(c3ccc(Nc4ccc(F)c(F)c4)nc3n2C)C1 (racemic) [Example 26, N^2-(3,4-difluorophenyl)-N^8,9-dimethyl-6,7,8,9-tetrahydro-5H-pyrido[2,3-b]indole-2,6-diamine hydrogenchloride]	16.8
